Results taken from ChEMBL document CHEMBL3045847, “Efficacy evaluation of a neem (Azadirachta indica A. Juss) formulation against root-knot nematodes Meloidogyne incognita” (Crop Prot, 2009).
Activity calls are given as the source filed them. The rule behind the calls is not given here.

Columns and labels:
Meloidogyne incognita [1] = assay: Insecticidal activity against second stage juveniles of Meloidogyne incognita (root-knot nematode) assessed as motility at 0.2 to 3.2 ug a.i/ml in methanol after 24 to 96 hr; assay type: functional, organism-based
Meloidogyne incognita [2] = assay: Insecticidal activity against second stage juveniles of Meloidogyne incognita (root-knot nematode) assessed as increase in immotile at 12.8 to 51.2 ug a.i/ml in methanol after 24 to 96 hr; assay type: functional, organism-based
Solanum lycopersicum [3] = assay: Toxicity in Solanum lycopersicum (tomato) assessed as effect on shoot and root fresh weight at 0.03 to 30.72 ug/g after 24 hr; assay type: organism-based; conditions: in vivo
Meloidogyne incognita [4] = assay: Insecticidal activity against second stage juveniles of Meloidogyne incognita (root-knot nematode) assessed as increase in immotile at 12.8 to 51.2 ug a.i/ml in water after 24 to 96 hr; assay type: functional
[5] = Chemical stability of the compound after 4 days by HPLC analysis; assay type: physicochemical; conditions: 96 h
[6] = Chemical stability of the compound after 72 hr by HPLC analysis; assay type: physicochemical
Solanum lycopersicum [7] = assay: Phytotoxicity in Solanum lycopersicum (tomato) assessed as effect on shoot and root fresh weight at 0.03 to 30.72 ug/g after 24 hr; assay type: organism-based; conditions: in vivo
Meloidogyne incognita [8] = assay: Insecticidal activity against second stage juveniles of Meloidogyne incognita (root-knot nematode) assessed as increase in immotile at 51.2 ug a.i/ml in methanol after 48 to 96 hr; assay type: functional
Meloidogyne incognita [9] = assay: Insecticidal activity against second stage juveniles of Meloidogyne incognita (root-knot nematode) assessed as decrease of female nematodes in tomato roots at 2 ug/g after 30 days by pot bioassay; assay type: functional, organism-based
Solanum lycopersicum [10] = assay: Phytotoxicity in Solanum lycopersicum (tomato) assessed as effect on shoot and root fresh weight at 2 ug/g after 24 hr; assay type: organism-based; conditions: in vivo
Solanum lycopersicum [11] = assay: Toxicity in Solanum lycopersicum (tomato) assessed as effect on shoot and root fresh weight at 2 ug/g after 24 hr; assay type: organism-based; conditions: in vivo
Meloidogyne incognita [12] = assay: Insecticidal activity against second stage juveniles of Meloidogyne incognita (root-knot nematode) assessed as motility at 0.2 to 3.2 ug a.i/ml in water after 24 to 96 hr; assay type: functional, organism-based
Meloidogyne incognita [13] = assay: Insecticidal activity against second stage juveniles of Meloidogyne incognita (root-knot nematode) assessed as motility at 0.2 ug a.i/ml in water after 24 to 96 hr; assay type: functional, organism-based
Meloidogyne incognita [14] = assay: Insecticidal activity against second stage juveniles of Meloidogyne incognita (root-knot nematode) assessed as decrease of female nematodes in tomato roots at 0.03 to 30.72 ug/g after 30 days by pot bioassay; assay type: functional, organism-based

C/C=C(\C)C(=O)O[C@H]1C[C@@H](OC(C)=O)[C@@]2(C(=O)OC)CO[C@H]3[C@@H](O)[C@@](C)([C@]45O[C@@]4(C)[C@@H]4C[C@H]5O[C@@H]5OC=C[C@@]54O)[C@H]4[C@]1(CO[C@]4(O)C(=O)OC)[C@@H]32 (stereo in doubt; form 1)
Activity (Meloidogyne incognita [1]): inactive | Activity (Meloidogyne incognita [2]): Active

C/C=C(\C)C(=O)O[C@H]1C[C@@H](OC(C)=O)[C@@]2(C(=O)OC)CO[C@H]3[C@@H](O)[C@@](C)([C@]45O[C@@]4(C)[C@@H]4C[C@H]5O[C@@H]5OC=C[C@@]54O)[C@H]4[C@]1(CO[C@]4(O)C(=O)OC)[C@@H]32 (stereo in doubt; form 2) [AZADIRACHTIN A]
Activity (Solanum lycopersicum [3]): Non-toxic | Activity (Meloidogyne incognita [4]): 21% | Activity [5]: 88% | Stability [6]: Stable | Activity (Solanum lycopersicum [7]): Non-toxic

C/C=C(\C)C(=O)O[C@H]1C[C@@H](OC(C)=O)[C@@]2(C(=O)OC)CO[C@H]3[C@@H](O)[C@@](C)([C@]45O[C@@]4(C)[C@@H]4C[C@H]5O[C@@H]5OC=C[C@@]54O)[C@H]4[C@]1(CO[C@]4(O)C(=O)OC)[C@@H]32 (stereo in doubt; form 1) [AZADIRACHTIN A]
Activity [5]: 84% | Activity (Meloidogyne incognita [8]): 11%

CCOP(=O)(SC(C)CC)N1CCSC1=O (stereo not given) [FOSTHIAZATE]
Activity (Meloidogyne incognita [9]): Active | Activity (Solanum lycopersicum [10]): Non-toxic | Activity (Solanum lycopersicum [11]): Non-toxic

C/C=C(\C)C(=O)O[C@H]1C[C@@H](OC(C)=O)[C@@]2(C(=O)OC)CO[C@H]3[C@@H](O)[C@@](C)([C@]45O[C@@]4(C)[C@@H]4C[C@H]5O[C@@H]5OC=C[C@@]54O)[C@H]4[C@]1(CO[C@]4(O)C(=O)OC)[C@@H]32 (stereo in doubt; form 2)
Activity (Meloidogyne incognita [12]): inactive | Activity (Meloidogyne incognita [13]): inactive | Activity (Meloidogyne incognita [14]): inactive
